According to US7417045B2, “Heterocyclic substituted pyridine or phenyl compounds with CXCR3 antagonist activity” (Schering Corporation, priority 2005, dated 2008):

Biological target: T1, human CXCR3 (N-delta 4) (Homo sapiens, UniProt P49682)
T1 construct: CD8 leader (N); Flag tag; expressed in transfected cells; membranes
T1 sequence (P49682 5-368 limits assumed): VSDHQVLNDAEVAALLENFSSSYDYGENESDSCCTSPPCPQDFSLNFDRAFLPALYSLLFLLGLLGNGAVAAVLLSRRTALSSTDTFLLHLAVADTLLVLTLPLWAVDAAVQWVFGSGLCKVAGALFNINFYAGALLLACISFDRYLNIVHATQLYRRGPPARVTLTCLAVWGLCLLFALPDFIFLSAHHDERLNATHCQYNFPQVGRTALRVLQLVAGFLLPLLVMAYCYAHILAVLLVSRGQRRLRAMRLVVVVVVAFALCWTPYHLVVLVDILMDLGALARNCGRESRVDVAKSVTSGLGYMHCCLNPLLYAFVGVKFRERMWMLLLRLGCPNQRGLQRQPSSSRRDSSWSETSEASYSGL
Test: Human CXCR3 (N-delta 4) Scintillation Proximity Assay (SPA), [125I] IP-10 binding
Conditions: IC50 rating; [125I] IP-10 displacement, Ba/F3-hCXCR3 (N-delta 4) membranes
From the text: The inventive compounds can readily be evaluated to determine activity at The CXCR3 receptors by known methods, such as, for example, Development of Human CXCR3 (N-delta 4) Binding Assay.
Cloning and Expression of Human CXCR3 (N-Delta 4):
The DNA encoding human CXCR3 was cloned by PCR using human genomic DNA (Promega, Madison, Wis.) as a template. The PCR primers were designed based on the published sequence of human orphan receptor GPR9 (1) with incorporated restriction sites, a Kozak consensus sequence, CD8 leader and Flag tag. The PCR product was subcloned into the mammalian expression vector pME18Sneo, a derivative of the SR-alpha expression vector (designated as pME18Sneo-hCXCR3 (N-delta 4).
IL-3-dependent mouse pro-B cells Ba/F3 were transfected by electroporation in 0.4 ml Dulbecco's PBS containing 4×10^6 cells with 20 μg of pME18Sneo-hCXCR3 (N-delta 4) plasmid DNA. Cells were pulsed at 400 Volts, 100 OHMs, 960 μFd. The transfected cells were under selection with 1 mg/ml G418 (Life Technologies, Gaithersburg, Md.). G418-resistant Ba/F3 clones were screened for CXCR3 expression by specific binding of [^125I] IP-10 (NEN Life Science Products, Boston, Mass.).
Preparation of Ba/F3-hCXCR3 (N-Delta 4) Membranes
Ba/F3 cells expressing human CXCR3 (N-delta 4) were pelleted and resuspended in the lysis buffer containing 10 mM HEPES, pH 7.5 and Complete® protease inhibitors (1 tablet per 100 ml) (Boehringer Mannheim, Indianapolis, Ind.) at a cell density of 20×10^6 cells per ml. After 5 minutes incubation on ice, cells were transferred to 4639 cell disruption bomb (Parr Instrument, Moline, Ill.) and applied with 1,500 psi of nitrogen for 30 minutes on ice. Large cellular debris was removed by centrifugation at 1,000× g. Cell membrane in the supernatant was sedimented at 100,000× g. The membrane was resuspended in the lysis buffer supplemented with 10% sucrose and stored at −80° C. Total protein concentration of the membrane was determined by BCA method from Pierce (Rockford, Ill.).
Human CXCR3 (N-Delta 4) Scintillation Proximity Assay (SPA)
For each assay point, 2 μg of membrane was preincubated for 1 hr with 300 μg wheat germ agglutinin (WGA) coated SPA beads (Amersham, Arlington Heights, Ill.) in the binding buffer (50 mM HEPES, 1 mM CaCl2, 5 mM MgCl2, 125 mM NaCl, 0.002% NaN3, 1.0% BSA) at room temperature. The beads were spun down, washed once, resuspended in the binding buffer and transferred to a 96-well Isoplate (Wallac, Gaithersburg, Md.). 25 pM of [^125I] IP-10 with tested compounds in a series of titration were added to start the reaction. After 3 hr reaction at room temperature, the amount of [^125I] IP-10 bound to the SPA beads was determined with a Wallac 1450 Microbeta counter.

SMILES | IC50 [µM]
CC[C@H]1CN(c2ncc(-c3nccn3C)cc2Cl)CCN1C1CCN(Cc2ccc(Cl)cc2F)CC1 [Compound 122] | 0.025 to 0.1
CC[C@H]1CN(c2ncc(-c3ncc[nH]3)cc2Cl)CCN1C1CCN(C(=O)c2ccc(-n3ccnc3)cc2)CC1 [Compound 156] | > 0.1
CC[C@H]1CN(c2ncc(-c3nnc(C)o3)cc2Cl)CCN1C1CCN(C(=O)c2ccc(Br)cc2)CC1 [Compound 120] | 0.025 to 0.1
CC[C@H]1CN(c2ncc(-c3ncc[nH]3)cc2Cl)CCN1C1(C)CCN(Cc2ccc(Cl)cc2C(=O)NC)CC1 [Compound 130] | 0.025 to 0.1
CC[C@H]1CN(c2ncc(-c3ncon3)cc2Cl)CCN1C1CCN(Cc2ccc(Cl)cc2F)CC1 [Compound 144] | > 0.1
CC[C@H]1CN(c2ncc(C3=NCCN3)cc2Cl)CCN1C1CCN(Cc2ccc(C3CC3CO)cc2)CC1 (stereo partly drawn) [Compound 153] | > 0.1
CC[C@H]1CN(c2ncc(-c3ncc[nH]3)cc2Cl)CCN1C1CCN(C(=O)c2ccc(-n3ccc(C(F)(F)F)n3)cc2)CC1 [Compound 157] | > 0.1
CC[C@H]1CN(c2ncc(-c3ncc[nH]3)cc2Cl)CCN1C1CCN(Cc2ccc(C#CC(C)(C)NS(N)(=O)=O)cc2)CC1 [Compound 114] | 0.025 to 0.1
C[C@H]1CN(c2ncc(-c3nc4ccccc4[nH]3)cc2Cl)CCN1C1CCN(Cc2ccc(Cl)cc2)CC1 [Compound 110] | 0.025 to 0.1
CC[C@H]1CN(c2ncc(-c3ncc[nH]3)cc2Cl)CCN1C1CCN([C@H](C(=O)NCC(F)(F)F)c2ccc(Cl)cc2)CC1 [Compound 155] | > 0.1
CC[C@H]1CN(c2ncc(C3=NCCN3)cc2Cl)CCN1C1CCN(Cc2ccc(C#CC(C)(C)NS(N)(=O)=O)cc2)CC1 [Compound 131] | 0.025 to 0.1
CC[C@H]1CN(c2ncc(-c3ncc[nH]3)cc2Cl)CCN1C1CCN(Cc2ccc(C#CCN(C)C)cc2)CC1 [Compound 100] | < 0.025
CC[C@H]1CN(c2ncc(-c3nnco3)cc2Cl)CCN1C1CCN(C(=O)c2ccc(Br)cc2)CC1 [Compound 129] | 0.025 to 0.1
CC[C@H]1CN(c2ncc(-c3nnc(CO)o3)cc2Cl)CCN1C1CCN(C(C(=O)OC)c2ccc(Cl)cc2)CC1 (stereo partly drawn) [Compound 124] | 0.025 to 0.1

Continued, values first:

IC50 [µM] | SMILES
< 0.025 | CC[C@H]1CN(c2ncc(-c3ncc[nH]3)cc2Cl)CCN1C1CCN(Cc2ccc(C#CC(C)(C)C)cc2)CC1 [Compound 25]
< 0.025 | CC[C@H]1CN(c2ncc(-c3ncc[nH]3)cc2Cl)CCN1C1CCN(Cc2ccc(Cl)cc2/C(N)=N/O)CC1 [Compound 6]
< 0.025 | CC[C@H]1CN(c2ncc(C3=NCCN3)cc2Cl)CCN1C1CCN(Cc2ccc(Cl)cc2F)CC1 [Compound 26]
< 0.025 | CC[C@H]1CN(c2ncc(-c3ncc[nH]3)cc2Cl)CCN1C1CCN(Cc2ccc(-c3csnn3)cc2)CC1 [Compound 22]
< 0.025 | CC[C@H]1CN(c2ncc(-c3ncc[nH]3)cc2Cl)CCN1C1CCN(Cc2ccc(Cl)cc2C(=O)O)CC1 [Compound 43]
< 0.025 | CC[C@H]1CN(c2ncc(-c3ncc[nH]3)cc2Cl)CCN1C1CCN(Cc2ccc(Cl)cc2-c2ncc[nH]2)CC1 [Compound 28]
< 0.025 | CC[C@H]1CN(c2ncc(-c3ncc[nH]3)cc2Cl)CCN1C1CCN(Cc2ccc(C#CC(C)(C)O)cc2)CC1 [Compound 23]
< 0.025 | CC[C@H]1CN(c2ncc(-c3ncc[nH]3)cc2Cl)CCN1C1CCN([C@H](C(N)=O)c2ccc(Cl)cc2)CC1 [Compound 89]
< 0.025 | CC[C@H]1CN(c2ncc(-c3ncc[nH]3)cc2Cl)CCN1C1CCN(C(CO)c2ccc(Cl)cc2)CC1 (stereo partly drawn) [Compound 18]
< 0.025 | CC[C@H]1CN(c2ncc(-c3nnc(COC(C)=O)o3)cc2Cl)CCN1C1CCN(Cc2ccc(Cl)cc2F)CC1 [Compound 84]
< 0.025 | CCOC(CNC(=N)c1cc(Cl)ccc1CN1CCC(N2CCN(c3ncc(-c4ncc[nH]4)cc3Cl)C[C@@H]2CC)CC1)OCC [Compound 21]
< 0.025 | CC[C@H]1CN(c2ncc(-c3ncc[nH]3)cc2Cl)CCN1C1CCN([C@@H](C(=O)N(C)C)c2ccc(Cl)cc2)CC1 [Compound 97]
< 0.025 | CC[C@H]1CN(c2ncc(-c3ncc[nH]3)cc2Cl)CCN1C1CCN(Cc2ccc(I)cc2)CC1 [Compound 3]
